Measurements: patent US20240024479A1, “NK CELLS OR T CELLS EXPRESSING CHIMERIC HEMATOPOIETIC GROWTH FACTOR RECEPTORS AND METHODS OF USE” (The United States of America, as represented by the …, priority 2020, published 2024)

Legend:
Type in all cases: cell-based, human
[1] = test system: c-MPL+ NK-92 cells; test: Short-term expansion and apoptosis assay, c-MPL+ NK-92; details: TPO plus LD IL-2 vs LD IL-2 alone; day 3
Procedure: In vitro cell expansion cultures: The NK-92 (5×10^4 cell/ml) and KHYG-1 (1×10^4 cell/ml) cells were cultured in 1 ml of complete medium in 24-well plate. […] Trypan blue negative cells were counted every other day. […] For competitive primary NK and T cell expansion assay, all transduced cells (5×10^5/ml for NK and 4×10^5/ml for T cell) containing a mixture of GFP positive (transduced) and GFP negative (untransduced) cells were plated on day 0. Fresh medium with appropriate supplements was replaced every other day for NK cells and only on day 3 for T cell experiment. Viable cells were counted and percentage of GFP^+ cells was acquired on indicated days (NK: day 4 and 6, T: day 3 and 6). The fold change of GFP^+ cells was calculated by multiplying the counted cell number times the fraction GFP^+.
(§1) Staining was performed in phosphate-buffered saline (PBS) with 2% FBS and 2 mM EDTA and analyzed on a BD LSRFortessa machine. If intracellular staining was required, BD cytofix/cytoperm (BD Biosciences) was applied for cell fixation and permeabilization after surface staining. The apoptosis assay was performed using PE annexinV apoptosis detection kit (BD Biosciences). The data were analyzed on FlowJo software.

[2] = test system: c-MPL+ NK-92 cells; test: Flow cytometry of cell signaling and anti-apoptotic proteins, c-MPL+ NK-92
Procedure: as §1
Expression of target proteins was evaluated afterward by flow cytometry as described above.

[3] = test system: parental NK-92 cell line; test: In vitro cell expansion of parental NK-92; details: EPO or TPO administration
Procedure: In vitro cell expansion cultures: The NK-92 (5×10^4 cell/ml) and KHYG-1 (1×10^4 cell/ml) cells were cultured in 1 ml of complete medium in 24-well plate. […] Trypan blue negative cells were counted every other day. […] The short-term cell expansion assay was performed in similar fashion, except cells were initially cultured without IL-2 overnight before adding different cytokines and enumerating the cell number. For competitive primary NK and T cell expansion assay, all transduced cells (5×10^5/ml for NK and 4×10^5/ml for T cell) containing a mixture of GFP positive (transduced) and GFP negative (untransduced) cells were plated on day 0. Fresh medium with appropriate supplements was replaced every other day for NK cells and only on day 3 for T cell experiment. Viable cells were counted and percentage of GFP^+ cells was acquired on indicated days (NK: day 4 and 6, T: day 3 and 6). The fold change of GFP^+ cells was calculated by multiplying the counted cell number times the fraction GFP^+.

[4] = test system: c-MPL+ KHYG-1 cells; test: In vitro cell expansion of c-MPL+ KHYG-1 cells
Description: Lentiviral production and transduction: Lentivirus gene expression vectors encoding EGFP-P2A linker-human EPOR or EGFP-P2A-human c-MPL were cloned according to our design by VectorBuilder (TX, USA). Plasmid DNA for the above and pCMV-dR8.2 dvpr and pCMV-VSV-G packaging plasmids was purified using ZymoPUREII-EndoZero plasmid maxiprep kit (Zymo Research, CA). Lentiviral particles were generated with HEK293T cells and Lipofectamine3000 reagent (Thermo Fisher Scientific, MA) following the manufacturers' instructions. Viral supernatant was harvested at 24 and 48 hours, pooled, and concentrated with lenti-X concentrator (Takara Bio, Japan) or by centrifugation at 18,600 rpm for 2 hours at 4° C. […] After 5 days post-transduction, cells were stained and sorted with fluorescence-activated cell sorting (FACS) using a BD FACSAria II to purify GFP^+EPOR^+ and GFP^+c-MPL^+ NK cell populations.
In vitro cell expansion cultures: The NK-92 (5×10^4 cell/ml) and KHYG-1 (1×10^4 cell/ml) cells were cultured in 1 ml of complete medium in 24-well plate. […] Trypan blue negative cells were counted every other day. […] Viable cells were counted and percentage of GFP^+ cells was acquired on indicated days (NK: day 4 and 6, T: day 3 and 6). The fold change of GFP^+ cells was calculated by multiplying the counted cell number times the fraction GFP^+.

[5] = test system: Raji tumor cells; test: Flow cytometry based killing assay, c-MPL+ NK-92 effectors vs Raji; details: c-MPL+ NK-92 exposed to TPO+LD IL-2, 4 hours
Procedure: The target cells were labeled with 1 μM cell trace violet in some experiments (Thermo Fisher Scientific). The effector and target cells were incubated together in duplicate wells at specific E:T ratio in complete medium without cytokines for 4 hours (total cell number: 200,000 to 250,000 per well in 96-well plate). 7-AAD and Sphero AccuCount Fluorescent particles (Spherotech, IL) were added before analysis by flow cytometry. The absolute number of viable 7-AAD negative target cells was calculated according to bead numbers added (Cooper et al., Leukemia 32:1970-1983, 2018). The percentage of dead cells was calculated relative to target cell only control wells.

[6] = test system: GFP+ MPL+ transduced cells; test: Cell surface phenotype of c-MPL-transduced primary NK cells
Procedure: Human NK cells were stimulated and transduced with c-MPL/GFP lentiviral vectors. […] After 4 days, cellular function was assessed by mixing at a 1:1 ratio with K562 target cells and assessing (FIG. 13A) NK cell degranulation (by surface anti-CD107a staining) two hours later, or (FIG. 13B) intracellular IFN-γ and TNF-α four hours after addition of K562. Results for gated GFP transduced cells or independent untransduced cultures from the same donors are shown. The cell surface phenotype of the NK cells was also assessed after 4 days of culture with cytokines as indicated (FIG. 13C).
Flow cytometry, reagents and pathway analysis: Fluorochrome-conjugated monoclonal antibodies were used as follows: BD Biosciences: CD56-PE-Cy7 (NCAM16.2), CD3-PE (UCHT1), c-MPL-PE (1.6.1), STAT5(pY694)-Alexa Fluor647 (47/stat5(pY694)), NKp46-APC (9E2), NKp44-PE (p44-8), FAS-PE (DX2) CD62L-V450 (DREG-56); R&D systems: EPOR-PE (FAB307P); Biolegend: Bc1-2-PE (100), TRAIL-APC (RIK-2), CXCR4-BV421 (12G5), KIR3DL1-BV421 (DX9); Abcam: Bcl-xL-PE (ab208747); Cell signaling technology: P-p44/42 MAPK-Alexa Fluor647 (E10) and p-S6 ribosomal protein-PE (D57.2.2E); Beckman Coulter: NKG2A-PE (Z199), KIR2DL1/S1-PE (EB6B), KIR2DL2/3-PE/Cy5.5 (GL183). Staining was performed in phosphate-buffered saline (PBS) with 2% FBS and 2 mM EDTA and analyzed on a BD LSRFortessa machine. […] The data were analyzed on FlowJo software.

Question: What does the source list for “TPO: recombinant human thrombopoietin, ligand of the c-MPL receptor; 50 ng/ml rhTPO (R&D)”?
Answer: proportion of dead/apoptotic cells [1]: significantly lower proportions of dead/apoptotic cells; pS6 expression ([2]; TPO added to LD IL-2): 11.84; STAT5 phosphorylation, additivity ([2]; TPO combined with LD IL-2): No additive effects; pSTAT5 expression ([2]; TPO vs no IL-2 control, comparable to LD IL-2): appeared to increase pSTAT5 expression; Bcl-2 RMFI ([2]; TPO, 24 hours, no IL-2): 64.54; Bcl-xL RMFI ([2]; TPO, 24 hours, no IL-2): 4.52; phospho-p44/42 MAPK expression ([2]; cultures supplemented with IL-2 or TPO, 15 minutes): No alteration; expansion of the parental NK-92 cell line [3]: did not alter; cell growth of transduced KHYG-1 cells ([4]; TPO alone): insufficient to maintain cell growth; proliferative response of receptor-transduced KHYG-1 NK cells ([4]; TPO with low-dose IL-2 (1 U/ml or 5 U/ml)): synergized; mean percentage of dead Raji cells ([5]; E:T 1:1): 84%; mean percentage of dead Raji cells ([5]; E:T 10:1): 85%; CD62L expression ([6]; TPO added to media containing 25 U/ml IL-2, normalized to each donor): significantly increased CD62L expression; NK cell phenotype other than CD62L ([6]; TPO added to media containing 25 U/ml of IL-2): no phenotypic differences
